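A five-concentration, 48-hour dose response in 96-well plates underlies each endpoint, interpolated linearly between surrounding concentrations. TGI marks complete inhibition of growth.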
Columns and labels:
Assay in all cases: DTP human tumour cell line panel, 48 h
786-0 renal = tested on: 786-0 renal
A498 renal = tested on: A498 renal
A549 NSCLC = tested on: A549 NSCLC
ACHN renal = tested on: ACHN renal
BT-549 breast = tested on: BT-549 breast
CAKI-1 renal = tested on: CAKI-1 renal
CCRF-CEM leukemia = tested on: CCRF-CEM leukemia
COLO 205 colon = tested on: COLO 205 colon
DU-145 prostate = tested on: DU-145 prostate
EKVX NSCLC = tested on: EKVX NSCLC
HCC-2998 colon = tested on: HCC-2998 colon
HCT-116 colon = tested on: HCT-116 colon
HCT-15 colon = tested on: HCT-15 colon
HOP-62 NSCLC = tested on: HOP-62 NSCLC
HOP-92 NSCLC = tested on: HOP-92 NSCLC
HS 578T breast = tested on: HS 578T breast
HT29 colon = tested on: HT29 colon
IGROV1 ovarian = tested on: IGROV1 ovarian
K-562 leukemia = tested on: K-562 leukemia
KM12 colon = tested on: KM12 colon
LOX IMVI melanoma = tested on: LOX IMVI melanoma
M14 melanoma = tested on: M14 melanoma
MALME-3M melanoma = tested on: MALME-3M melanoma
MCF7 breast = tested on: MCF7 breast
MDA-MB-231 breast = tested on: MDA-MB-231 breast
MDA-MB-435 = tested on: MDA-MB-435
MDA-N = tested on: MDA-N
MOLT-4 leukemia = tested on: MOLT-4 leukemia
NCI-H226 lung = tested on: NCI-H226 lung
NCI-H23 lung = tested on: NCI-H23 lung
NCI-H460 lung = tested on: NCI-H460 lung
NCI-H522 lung = tested on: NCI-H522 lung
NCI/ADR-RES ovarian = tested on: NCI/ADR-RES ovarian
OVCAR-3 ovarian = tested on: OVCAR-3 ovarian
OVCAR-4 ovarian = tested on: OVCAR-4 ovarian
OVCAR-5 ovarian = tested on: OVCAR-5 ovarian
OVCAR-8 ovarian = tested on: OVCAR-8 ovarian
PC-3 prostate = tested on: PC-3 prostate
RPMI-8226 leukemia = tested on: RPMI-8226 leukemia
RXF 393 renal = tested on: RXF 393 renal
SF-268 CNS = tested on: SF-268 CNS
SF-295 CNS = tested on: SF-295 CNS
SF-539 CNS = tested on: SF-539 CNS
SK-MEL-28 melanoma = tested on: SK-MEL-28 melanoma
SK-MEL-5 melanoma = tested on: SK-MEL-5 melanoma
SK-OV-3 ovarian = tested on: SK-OV-3 ovarian
SN12C renal = tested on: SN12C renal
SNB-19 CNS = tested on: SNB-19 CNS
SNB-75 CNS = tested on: SNB-75 CNS
SR leukemia = tested on: SR leukemia
SW-620 colon = tested on: SW-620 colon
TK-10 renal = tested on: TK-10 renal
U251 CNS = tested on: U251 CNS
UACC-257 melanoma = tested on: UACC-257 melanoma
UACC-62 melanoma = tested on: UACC-62 melanoma
UO-31 renal = tested on: UO-31 renal
HL-60(TB) leukemia = tested on: HL-60(TB) leukemia
SK-MEL-2 melanoma = tested on: SK-MEL-2 melanoma
T-47D breast = tested on: T-47D breast

Measured: TGI

Fc1nc(-c2c3ccccc3c3sc4ccccc4n23)nc(N2CCOCCOCCOCCOCC2)n1
51.6 µM: RXF 393 renal
93 µM: HOP-92 NSCLC
68.6 µM: SR leukemia
93.4 µM: CCRF-CEM leukemia
5.87 µM: SNB-75 CNS
not listed: HL-60(TB) leukemia | SK-MEL-2 melanoma | T-47D breast
> 100 µM: all other assays above

C=CCNC(=S)NC=C(C(N)=O)C(N)=O
89.2 µM: A498 renal
not listed: BT-549 breast | HOP-92 NSCLC | TK-10 renal
> 100 µM: all other assays above
